# Earlier results in patent US10071030B2, “Carrier comprising non-neutralised tocopheryl phosphate” (Phosphagenics Limited, priority 2010, dated 2018).
# Conditions: from dietary sources
smiles,measurement,value
"COC1=C(OC)C(=O)C(C/C=C(\C)CC/C=C(\C)CC/C=C(\C)CC/C=C(\C)CC/C=C(\C)CC/C=C(\C)CC/C=C(\C)CC/C=C(\C)CC/C=C(\C)CCC=C(C)C)=C(C)C1=O [CoQ10, ubiquinone]",bioavailable fraction of CoQ10,5 to 10%
